One test deals with Mcl-1 protein (Homo sapiens, UniProt Q07820). As to the kind of experiment: Inhibition of Mcl-1 by the fluorescence polarisation technique (Method 1 or Method 2). The class given is binding. As to conditions: fluorescence polarisation, Fluorescein labelled ligand; Method 1 (not underlined) or Method 2 (underlined); read-out: IC50 (μM) Mcl-1 FP. As for the experimental part:
The relative binding potency of each compound was determined via Fluorescence Polarisation (FP).
An 11 point serial dilution of each compound was prepared in DMSO and 2 μl transferred into flat bottomed, low binding, 384-well plate (final DMSO concentration 5%). 38 μl of buffer (10 mM 4-(2-hydroxyethyl)-1-piperazineethanesulfonic acid [HEPES], 150 mM NaCl, 0.05% Tween 20, pH 7.4), containing the Fluorescein labelled ligand (final concentration 1 nM) and Mcl-1 protein (final concentration 5 nM) was then added.
An 11 point serial dilution of each compound was prepared in DMSO and 2 μl transferred into flat bottomed, low binding, 384-well plate (final DMSO concentration 5%). 38 μl of buffer (20 mM Na2HPO4, 1 mM EDTA, 50 mM NaCl, pH 7.4), containing the Fluorescein labelled ligand (final concentration 10 nM) and Mcl-1 protein (final concentration 10 nM) was then added.
For orientation: Polarisation of emitted light reports the rotation of a fluorescent probe.
Chain of Mcl-1 protein (Q07820 whole entry): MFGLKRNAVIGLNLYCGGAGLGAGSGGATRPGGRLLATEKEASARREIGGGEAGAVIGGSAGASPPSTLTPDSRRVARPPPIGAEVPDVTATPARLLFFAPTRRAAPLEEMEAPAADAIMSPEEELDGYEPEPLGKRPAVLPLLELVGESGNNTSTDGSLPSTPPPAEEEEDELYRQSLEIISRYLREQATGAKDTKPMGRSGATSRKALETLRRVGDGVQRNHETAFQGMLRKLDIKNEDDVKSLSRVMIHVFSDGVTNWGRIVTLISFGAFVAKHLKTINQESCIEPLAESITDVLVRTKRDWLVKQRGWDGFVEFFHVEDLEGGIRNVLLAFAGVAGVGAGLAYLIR
With `C/C=C\c1sc2ncnc(N[C@H](Cc3ccccc3)C(=O)O)c2c1-c1cccc2ccccc12` [Example 105, N-[(5Ra)-5-(naphthalen-1-yl)-6-((1Z)-prop-1-en-1-yl)thieno[2,3-d]pyrimidin-4-yl]-D-phenylalanine], the IC50 worked out at 0.704 µM.
`CCc1sc2ncnc(NC(Cc3ccccc3)C(=O)O)c2c1-c1cccc(F)c1C` [Example 70, N-[6-ethyl-(5Ra)-5-(3-fluoro-2-methylphenyl)thieno[2,3-d]pyrimidin-4-yl]-D-phenylalanine]: the IC50 worked out at 0.974 µM.
Turning to `CCc1sc2ncnc(NC(Cc3ccccc3OCCCN(C)C)C(=O)O)c2c1-c1cccc(Cl)c1C` [Example 158, N-[(5Sa)-5-(3-chloro-2-methylphenyl)-6-ethylthieno[2,3-d]pyrimidin-4-yl]-2-[3-(dimethylamino)propoxy]-D-phenylalanine], the IC50 stood at 0.104 µM.
Still for that read-out and setting: as for `CCc1sc2ncnc(NC(Cc3ccccc3OCc3cccc(Cl)c3)C(=O)O)c2c1-c1cccc(Cl)c1C` [Example 150, 2-[(3-chlorobenzyl)oxy]-N-[(5Sa)-5-(3-chloro-2-methylphenyl)-6-ethylthieno[2,3-d]pyrimidin-4-yl]-D-phenylalanine], the figure is 0.528 µM; as for `CC(=O)c1sc2ncnc(NC(Cc3ccccc3)C(=O)O)c2c1-c1cccc2ccccc12` [Example 200, N-[6-acetyl-(5Ra)-5-(naphthalen-1-yl)thieno[2,3-d]pyrimidin-4-yl]-D-phenylalanine], 5.44 µM; as for `CCc1sc2ncnc(N[C@H](CC3CCCCC3)C(=O)O)c2c1-c1cccc2[nH]ccc12` (single isomer, unassigned) [Example 242, 3-cyclohexyl-N-[6-ethyl-5-(1H-indol-4-yl)thieno[2,3-d]pyrimidin-4-yl]-D-alanine], 0.091 µM.
As to `CCc1sc2ncnc(NC(Cc3ccccc3)C(=O)O)c2c1-c1cccc2c1c(Cl)cn2CCN1CCN(C)CC1` [Example 239, N-((5Ra)-5-{3-chloro-1-[2-(4-methylpiperazin-1-yl)ethyl]-1H-indol-4-yl}-6-ethyl-thieno[2,3-d]pyrimidin-4-yl)-D-phenylalanine], the IC50 is 20.3 µM.
The same measure, in the same setting: as for `CCc1sc2ncnc(N[C@@H](C(=O)O)c3cccc(-c4ccccc4)c3)c2c1-c1cccc2ccccc12` (single isomer, unassigned) [Example 189], the figure is 8.33 µM.
Same read-out and setting: as for `CCc1sc2ncnc(NC(Cc3ccccc3)C(=O)O)c2c1-c1cccc2ccccc12` [Example 100, N-[6-ethyl-(5Ra)-5-(naphthalen-1-yl)thieno[2,3-d]pyrimidin-4-yl]-D-phenylalanine], the figure is 4.75 µM; as for `CCc1sc2ncnc(NC(Cc3ccccc3)C(=O)O)c2c1-c1ccc(OCC(=O)O)c(Cl)c1C` [Example 57, N-{(5Sa)-5-[4-(carboxymethoxy)-3-chloro-2-methylphenyl]-6-ethylthieno[2,3-d]pyrimidin-4-yl}-D-phenylalanine], 0.106 µM; as for `CCc1sc2ncnc(NC(Cc3ccc(O)cc3)C(=O)O)c2c1-c1cccc2ccccc12` [Example 173, N-[6-ethyl-(5Sa)-5-(naphthalen-1-yl)thieno[2,3-d]pyrimidin-4-yl]-D-tyrosine], 6.79 µM.
On the same count and under the same terms, under `CCc1sc2ncnc(N[C@@H](C(=O)O)c3ccccc3)c2c1-c1cccc2ccccc12` (single isomer, unassigned) [Example 161] stands 12.6 µM.
In the case of `CCc1sc2ncnc(N[C@H](Cc3ccncc3)C(=O)O)c2c1-c1cccc2ccccc12` [Example 193, N-[6-ethyl-5-(naphthalen-1-yl)thieno[2,3-d]pyrimidin-4-yl]-3-pyridin-4-yl-D-alanine], the half-inhibitory concentration (IC50) is 36.5 µM.
Take `CCc1sc2ncnc(NC(Cc3ccc(F)cc3)C(=O)O)c2c1-c1cccc2ccccc12` [Example 176, N-[6-ethyl-(5Ra)-5-(naphthalen-1-yl)thieno[2,3-d]pyrimidin-4-yl]-4-fluoro-D-phenylalanine]: the concentration for half-maximal inhibition (IC50) was determined as 8.41 µM.
Still for that read-out and setting: under `CCCCn1nccc1COc1ccccc1CC(Nc1ncnc2sc(-c3ccc(F)o3)c(-c3ccc(OCCN4CCN(C)CC4)c(Cl)c3C)c12)C(=O)O` [Example 24, 2-[(1-butyl-1H-pyrazol-5-yl)methoxy]-N-[(5Sa)-5-{3-chloro-2-methyl-4-[2-(4-methylpiperazin-1-yl)ethoxy]phenyl}-6-(5-fluorofuran-2-yl)thieno[2,3-d]pyrimidin-4-yl]-D-phenylalanine] stands 0.008 µM; under `CCc1sc2ncnc(NC(Cc3ccccc3)C(=O)O)c2c1-c1cccc2c1c(Cl)cn2CCCN1CCN(C)CC1` [Example 241, N-((5Ra)-5-{3-chloro-1-[3-(4-methylpiperazin-1-yl)propyl]-1H-indol-4-yl}-6-ethyl-thieno[2,3-d]pyrimidin-4-yl)-D-phenylalanine], 14.3 µM.
On the same count and under the same terms, under `CCc1sc2ncnc(N[C@H](Cc3ccccc3C)C(=O)O)c2c1-c1cccc2ccccc12` (single isomer, unassigned) [Example 168, N-[6-ethyl-5-(naphthalen-1-yl)thieno[2,3-d]pyrimidin-4-yl]-2-methyl-D-phenylalanine] stands 4.78 µM; under `C=Cc1sc2ncnc(NC(Cc3ccccc3)C(=O)O)c2c1-c1cccc2ccccc12` [Example 102, N-[6-ethenyl-(5Sa)-5-(naphthalen-1-yl)thieno[2,3-d]pyrimidin-4-yl]-D-phenylalanine], 0.073 µM; under `CCc1sc2ncnc(NC(Cc3ccccc3)C(=O)O)c2c1-c1cccc(OC)c1C` [Example 76, N-[6-ethyl-(5Ra)-5-(3-methoxy-2-methylphenyl)thieno[2,3-d]pyrimidin-4-yl]-D-phenylalanine], 3.18 µM.
As to `CCc1sc2ncnc(NC(Cc3ccccc3[N+](=O)[O-])C(=O)O)c2c1-c1cccc(Cl)c1C` [Example 136, N-[(5Sa)-5-(3-chloro-2-methylphenyl)-6-ethylthieno[2,3-d]pyrimidin-4-yl]-2-nitro-D-phenylalanine], the IC50 was found to be 0.146 µM.
The same measure, in the same setting: as for `CCc1sc2ncnc(NC(Cc3ccccc3)C(=O)O)c2c1-c1cccc2cnn(C)c12` [Example 88, N-[6-ethyl-(5Sa)-5-(1-methyl-1H-indazol-7-yl)thieno[2,3-d]pyrimidin-4-yl]-D-phenylalanine], the figure is 1.23 µM.
On the same count and under the same terms, as for `CCc1sc2ncnc(N[C@H](CC3CCCCC3)C(=O)O)c2c1-c1cccc2ccccc12` [Example 164, 3-cyclohexyl-N-[6-ethyl-5-(naphthalen-1-yl)thieno[2,3-d]pyrimidin-4-yl]-D-alanine], the figure is 0.227 µM.
Same read-out and setting: as for `O=C(O)C(Cc1ccccc1)Nc1ncnc2sc(CO)c(-c3cccc4ccccc34)c12` [Example 198, N-[6-(hydroxymethyl)-(5Sa)-5-(naphthalen-1-yl)thieno[2,3-d]pyrimidin-4-yl]-D-phenylalanine], the figure is 9.86 µM; as for `Cc1sc2ncnc(N[C@H](Cc3ccccc3)C(=O)O)c2c1-c1cccc2ccccc12` [Example 196, N-[6-methyl-5-(naphthalen-1-yl)thieno[2,3-d]pyrimidin-4-yl]-D-phenylalanine], 2.91 µM.
Turning to `CCc1sc2ncnc(NC(Cc3ccccc3)C(=O)O)c2c1-c1cccc(F)c1C` [Example 69, N-[6-ethyl-(5Sa)-5-(3-fluoro-2-methylphenyl)thieno[2,3-d]pyrimidin-4-yl]-D-phenylalanine], the IC50 was found to be 0.109 µM.
On the same count and under the same terms, as for `CCc1sc2ncnc(N[C@H](Cc3cn(Cc4ccccc4)cn3)C(=O)O)c2c1-c1cccc2ccccc12` [Example 195, 1-benzyl-N-[6-ethyl-5-(naphthalen-1-yl)thieno[2,3-d]pyrimidin-4-yl]-D-histidine], the figure is 14.2 µM.
Same read-out and setting: as for `CCc1sc2ncnc(NC(Cc3ccccc3C#N)C(=O)O)c2c1-c1cccc(Cl)c1C` [Example 127, N-[(5Sa)-5-(3-chloro-2-methylphenyl)-6-ethylthieno[2,3-d]pyrimidin-4-yl]-2-cyano-D-phenylalanine], the figure is 0.913 µM; as for `CCc1sc2ncnc(N[C@H](Cc3ccccn3)C(=O)O)c2c1-c1cccc2ccccc12` [Example 191, N-[6-ethyl-5-(naphthalen-1-yl)thieno[2,3-d]pyrimidin-4-yl]-3-pyridin-2-yl-D-alanine], 0.171 µM.
On the same count and under the same terms, under `CCc1sc2ncnc(NC(Cc3ccccc3)C(=O)O)c2c1-c1cccc2c1c(Cl)cn2CCN1CCCCC1` [Example 235, N-((5Sa)-5-{3-chloro-1-[2-(piperidin-1-yl)ethyl]-1H-indol-4-yl}-6-ethyl-thieno[2,3-d]pyrimidin-4-yl)-D-phenylalanine] stands 1.39 µM; under `CCc1sc2ncnc(N[C@H](Cc3ccccc3)C(=O)O)c2c1-c1cccc2ncccc12` [Example 80, N-[6-ethyl-5-(quinolin-5-yl)thieno[2,3-d]pyrimidin-4-yl]-D-phenylalanine], 0.487 µM.

Staying with this test, now noted: partial inhibitors; @ 10 μM test compound.
As for `CCc1sc2ncnc(NC(Cc3ccccc3OCC(=O)N(C)C)C(=O)O)c2c1-c1cccc(Cl)c1C` [Example 141, N-[(5Ra)-5-(3-chloro-2-methylphenyl)-6-ethylthieno[2,3-d]pyrimidin-4-yl]-2-[2-(dimethylamino)-2-oxoethoxy]-D-phenylalanine], the “percentage fluorescence polarisation inhibition, Mcl-1 FP” value was found to be 26.78% @ 10 μM.

The same test, now with this note: partial inhibitors; @ 50 μM test compound.
For the compound `CCc1sc2ncnc(N[C@H](C(=O)O)[C@H](O)c3ccccc3)c2c1-c1cccc(Cl)c1C` [Example 124, (βR)—N-[(5Ra)-5-(3-chloro-2-methylphenyl)-6-ethylthieno[2,3-d]pyrimidin-4-yl]-beta-hydroxy-L-phenylalanine], the “percentage fluorescence polarisation inhibition, Mcl-1 FP” value is listed as 75.7% @ 50 μM.

The term IC50 denotes the concentration needed to halve the response being measured.

These data come from US10457687B2, “Aminoacid derivatives, a process for their preparation and pharmaceutical compositions containing them” (LES LABORATOIRES SERVIER, priority 2015, dated 2019).
